Where only a bound is given, the exact number is not on record here.

The target in one test is Serine protease 1 (Homo sapiens, UniProt P07477). As to the kind of experiment: In vitro binding affinity towards trypsin was determined.
Sequence of Serine protease 1 (P07477 whole entry): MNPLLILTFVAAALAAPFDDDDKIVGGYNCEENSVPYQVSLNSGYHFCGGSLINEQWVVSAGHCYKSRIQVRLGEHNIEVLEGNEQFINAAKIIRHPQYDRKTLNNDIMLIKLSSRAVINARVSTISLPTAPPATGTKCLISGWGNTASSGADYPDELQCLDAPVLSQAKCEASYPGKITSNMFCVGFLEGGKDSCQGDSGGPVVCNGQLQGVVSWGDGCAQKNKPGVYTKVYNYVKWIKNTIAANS
`CCCc1c(-c2csc(-c3cc(C(=N)N)sc3SC)n2)cnn1-c1ccccn1`: the Ki (in general, a dissociation constant, usually derived from enzyme kinetics or from competition with a known ligand) was 0.18 µM.

Molecular target in a further test: not listed separately
As to the kind of experiment: In vitro binding affinity towards human Complement C1r subcomponent.
Take `CCCc1c(-c2csc(-c3cc(C(=N)N)sc3SC)n2)cnn1-c1ccccn1`: the Ki is greater than 50 µM.

For another test, the target named is Plasminogen (Rattus norvegicus, UniProt Q01177). As to the kind of experiment: In vitro binding affinity towards plasmin was determined.
Sequence of Plasminogen (Q01177 97-581 limits assumed): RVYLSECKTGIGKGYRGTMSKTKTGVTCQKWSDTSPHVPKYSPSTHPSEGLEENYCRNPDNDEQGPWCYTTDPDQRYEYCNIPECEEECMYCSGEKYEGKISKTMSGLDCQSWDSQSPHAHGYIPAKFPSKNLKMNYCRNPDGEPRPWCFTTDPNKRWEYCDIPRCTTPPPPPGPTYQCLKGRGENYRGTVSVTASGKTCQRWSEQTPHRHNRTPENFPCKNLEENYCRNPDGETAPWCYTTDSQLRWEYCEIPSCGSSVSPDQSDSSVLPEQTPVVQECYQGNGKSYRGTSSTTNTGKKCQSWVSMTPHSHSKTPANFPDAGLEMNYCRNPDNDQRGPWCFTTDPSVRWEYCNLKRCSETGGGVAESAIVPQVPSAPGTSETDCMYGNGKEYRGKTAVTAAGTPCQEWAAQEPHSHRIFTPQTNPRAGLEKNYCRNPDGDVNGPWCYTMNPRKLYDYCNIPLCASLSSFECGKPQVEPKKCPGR
Sequence of Plasminogen (Q01177 582-812 limits assumed): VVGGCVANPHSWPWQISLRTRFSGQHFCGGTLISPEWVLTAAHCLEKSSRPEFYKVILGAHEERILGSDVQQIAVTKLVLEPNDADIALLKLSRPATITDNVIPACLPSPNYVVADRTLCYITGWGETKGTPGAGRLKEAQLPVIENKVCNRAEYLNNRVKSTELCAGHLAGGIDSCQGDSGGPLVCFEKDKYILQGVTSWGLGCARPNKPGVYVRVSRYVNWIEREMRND
`CCCc1c(-c2csc(-c3cc(C(=N)N)sc3SC)n2)cnn1-c1ccccn1` came in with a Ki of 5 µM.

The target in another test is T1, Complement C1s subcomponent (Homo sapiens, UniProt P09871).
T1 sequence (P09871 whole entry): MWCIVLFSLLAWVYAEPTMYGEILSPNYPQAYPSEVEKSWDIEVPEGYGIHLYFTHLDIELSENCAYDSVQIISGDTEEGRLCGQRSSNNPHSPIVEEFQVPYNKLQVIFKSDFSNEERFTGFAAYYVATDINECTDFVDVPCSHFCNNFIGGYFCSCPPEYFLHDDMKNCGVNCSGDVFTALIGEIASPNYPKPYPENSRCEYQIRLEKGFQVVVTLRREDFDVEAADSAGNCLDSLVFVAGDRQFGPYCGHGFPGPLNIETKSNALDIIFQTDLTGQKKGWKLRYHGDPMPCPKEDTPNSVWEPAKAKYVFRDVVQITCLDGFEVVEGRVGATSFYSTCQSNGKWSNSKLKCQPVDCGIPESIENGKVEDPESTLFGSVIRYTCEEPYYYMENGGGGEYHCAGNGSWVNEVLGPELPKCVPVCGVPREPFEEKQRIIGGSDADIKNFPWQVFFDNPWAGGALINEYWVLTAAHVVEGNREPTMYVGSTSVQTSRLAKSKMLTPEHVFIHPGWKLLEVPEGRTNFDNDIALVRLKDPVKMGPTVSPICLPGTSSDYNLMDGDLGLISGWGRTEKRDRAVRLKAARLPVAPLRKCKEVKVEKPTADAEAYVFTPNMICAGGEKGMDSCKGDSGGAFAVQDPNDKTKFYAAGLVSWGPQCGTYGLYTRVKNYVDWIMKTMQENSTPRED
Put plainly: In vitro binding affinity towards human Complement C1s subcomponent.
The molecule `CSc1sc(C(=N)N)cc1-c1nc(-c2cnn(-c3ccccc3)c2OCCC(C)C)cs1` yielded a Ki of 1.5 µM.

`CSc1sc(C(=N)N)cc1-c1nc(-c2cnn(C)c2)cs1` returned a Ki of 0.46 µM.

In turn, `CSc1sc(C(=N)N)cc1-c1nc(-c2cnn(-c3ccccc3)c2OCC2CCC2)cs1` had a Ki of 0.53 µM.

With `N=C(N)c1cc(-c2nc(-c3ccccc3)cs2)c(C(F)(F)F)s1`, the Ki is 12.5 µM.

In the case of `N=C(N)c1cc(-c2nc(-c3ccccc3)cs2)c(SCc2ccccc2)s1`, the Ki was greater than 20 µM.

Molecule `CCSc1sc(C(=N)N)cc1-c1nc(-c2ccccc2)cs1` had a Ki greater than 20 µM.

For the molecule `CS(=O)(=O)c1sc(C(=N)N)cc1-c1nc(-c2ccccc2)cs1`, the Ki is greater than 28 µM.

The molecule `Cc1sc(C(=N)N)cc1-c1nc(-c2ccccc2)cs1` had a Ki of 6 µM.

Molecule `CCCc1nn(C)cc1-c1csc(-c2cc(C(=N)N)sc2SC)n1` returned a Ki of 0.19 µM.

`CSc1sc(C(=N)N)cc1-c1nc(-c2ccccc2)cs1`: the affinity corresponds to a Ki of 0.56 µM.

`COc1ccccc1-c1csc(-c2cc(C(=N)N)sc2SC)n1` returned a Ki of 0.85 µM.

Molecule `CSc1sc(C(=N)N)cc1-c1nc(C2CCCCC2)cs1` had a Ki of 4.7 µM.

Consider `CSc1sc(C(=N)N)cc1-c1nc(-c2ccc(Cl)cc2Cl)cs1`, for which the Ki was 3 µM.

Molecule `CSc1sc(C(=N)N)cc1-c1nc(-c2cccnc2Cl)cs1` showed a Ki of 1.02 µM.

Molecule `COc1ccc(-c2csc(-c3cc(C(=N)N)sc3SC)n2)cc1` had a Ki of 0.9 µM.

With `CSc1sc(C(=N)N)cc1-c1nc(-c2ccc(Cl)cc2)cs1`, the Ki was found to be 0.436 µM.

`COc1ccc(-c2csc(-c3cc(C(=N)N)sc3SC)n2)c(OC)c1`: the affinity corresponds to a Ki of 0.64 µM.

As to `CSc1sc(C(=N)N)cc1-c1nc(-c2cccc(C)c2)cs1`, the Ki came out at 0.96 µM.

`CSc1sc(C(=N)N)cc1-c1nc(-c2cnccc2Cl)cs1` gave an inhibition constant (Ki) of 0.87 µM.

`CSc1sc(C(=N)N)cc1-c1nc(COc2ccccc2)cs1` had a Ki of 0.52 µM.

The molecule `CSc1sc(C(=N)N)cc1-c1nc(-c2csc3ccccc23)cs1` showed a Ki of 0.45 µM.

For the molecule `CSc1sc(C(=N)N)cc1-c1nc(-c2ccccc2C)cs1`, the Ki was 0.85 µM.

Turning to `CSc1sc(C(=N)N)cc1-c1nc(-c2ccc([N+](=O)[O-])cc2)cs1`, the Ki came out at 1 µM.

In turn, `COc1cccc(-c2csc(-c3cc(C(=N)N)sc3SC)n2)c1` displayed a Ki of 0.47 µM.

The molecule `CSc1sc(C(=N)N)cc1-c1nc(Cc2ccccc2)cs1` gave a Ki of 1.06 µM.

`CSc1sc(C(=N)N)cc1-c1nc(-c2ccc3ccccc3c2)cs1` showed a Ki of 0.49 µM.

In turn, `CSc1sc(C(=N)N)cc1-c1nc(-c2ccc(C)cc2)cs1` gave a Ki of 0.42 µM.

In turn, `CSc1sc(C(=N)N)cc1-c1nc(-c2cccs2)cs1` returned a Ki of 0.7 µM.

In turn, `CCCc1c(-c2csc(-c3cc(C(=N)N)sc3SC)n2)cnn1-c1ccccn1` yielded a Ki of 0.07 µM.

Regarding `CCCc1c(-c2csc(-c3cc(C(=N)N)sc3SC)n2)cnn1C`, the Ki is 0.33 µM.

Molecule `CCCc1c(-c2csc(-c3cc(C(=N)N)sc3SC)n2)cnn1-c1ccccc1` gave a Ki of 0.06 µM.

With `CCOc1c(-c2csc(-c3cc(C(=N)N)sc3SC)n2)cnn1-c1ccccc1`, the Ki was found to be 0.09 µM.

Consider `N=C(N)c1cc(-c2nc(-c3ccccc3)cs2)cs1`, for which the Ki was greater than 20 µM.

The molecule `COc1sc(C(=N)N)cc1-c1nc(-c2ccccc2)cs1` registered a Ki of 14.4 µM.

On to `CSc1sc(C(=N)N)cc1-c1ncc(-c2ccccc2)s1`, for which the Ki is 3.25 µM.

The molecule `CSc1sc(C(=N)N)cc1-c1nc(-c2cnn(-c3ccccc3)c2)cs1` showed a Ki of 0.15 µM.

With `CSc1sc(C(=N)N)cc1-c1nc(-c2ccc(Cl)c([N+](=O)[O-])c2)cs1`, the affinity, expressed as Ki, was 0.86 µM.

Consider `CSc1sc(C(=N)N)cc1-c1nc(-c2ccc(-c3ccccc3)cc2)cs1`, for which the Ki worked out at 15.4 µM.

In turn, `CCc1sc(C(=N)N)cc1-c1nc(-c2ccccc2)cs1` gave a Ki of 3 µM.

For a further test, the target named is Coagulation factor X (Homo sapiens, UniProt P00742). As to the kind of experiment: In vitro binding affinity towards Coagulation factor X was determined.
Sequence of Coagulation factor X (P00742 41-179 limits assumed): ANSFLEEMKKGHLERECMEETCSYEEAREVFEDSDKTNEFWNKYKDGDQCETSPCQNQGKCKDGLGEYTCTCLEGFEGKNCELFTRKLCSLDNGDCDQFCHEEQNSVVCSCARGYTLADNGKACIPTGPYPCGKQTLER
Sequence of Coagulation factor X (P00742 235-488 limits assumed): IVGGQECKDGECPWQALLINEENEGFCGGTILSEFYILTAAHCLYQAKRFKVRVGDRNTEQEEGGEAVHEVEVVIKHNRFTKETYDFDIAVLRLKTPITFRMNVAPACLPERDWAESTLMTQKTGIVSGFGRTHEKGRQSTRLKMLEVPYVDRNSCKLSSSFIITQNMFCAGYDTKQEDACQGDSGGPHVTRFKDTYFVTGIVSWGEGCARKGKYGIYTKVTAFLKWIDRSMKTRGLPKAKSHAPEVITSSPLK
`CCCc1c(-c2csc(-c3cc(C(=N)N)sc3SC)n2)cnn1-c1ccccn1` yielded a Ki of 5 µM.

Another test addresses Prothrombin (Homo sapiens, UniProt P00734). As to the kind of experiment: In vitro binding affinity towards thrombin was determined.
With `CCCc1c(-c2csc(-c3cc(C(=N)N)sc3SC)n2)cnn1-c1ccccn1`, the Ki was greater than 50 µM.

Source of the values: ChEMBL document CHEMBL1149210, “A novel series of potent and selective small molecule inhibitors of the complement component C1s” (Bioorg Med Chem Lett, 2004).
